Laboratory results reported in patent US11427552B2, “Heterocyclic compounds useful in the treatment of disease” (EPIGEN BIOSCIENCES, INC., priority 2013, dated 2022).

Biological target: T1, LPA1R (Homo sapiens, UniProt Q92633)
T1 construct: host or cells: LPA1R expressing cells (Millipore, GPCR Profiler)
Experiment: LPA1R Ca2+ flux functional assay (antagonist mode, FLIPR)
Format: cell-based
Settings: inhibition of LPA-stimulated Ca2+ flux, LPA at EC80, LPA1R expressing cells (Millipore); read-out: LPA1 R Antagonist Activity
Method: Inhibition of LPA-stimulated Ca^2+ flux was used to assess compound potency using FLIPR technology in a 96 well plate format. The assay buffer used was a modified Hanks Balanced Salt Solution (HBSS) where HBSS was supplemented to contain 20 mM HEPES and 2.5 mM Probenecid at pH7.4 (Millipore, GPCR Profiler®). LPA1R expressing cells (Millipore) were plated and prepared 24 hours prior to assay of test articles. Ca^2+ ion flux was assessed from fluorescence of a Fluo-based No Wash Ca^2+ dye. Antagonist data are generated from plates with LPA concentrations sufficient to generate 80% efficacy [EC80]. Percentage inhibition was calculated from a reduction of efficacy according to concentration of compounds of Formula I-VI. For dose responses the inhibition data was used to calculate compound IC50. The agonist assay was conducted on a FLIPR^TETRA instrument where the test compound(s), vehicle controls, and reference agonist were added to the assay plate after a fluorescence baseline was established. The agonist assay was a total of 180 seconds and was used to assess each compound's ability to activate each GPCR assayed. Upon completion of the agonist assay, the assay plate was removed from the FLIPR^TETRA and incubated at 25° C. for seven (7) minutes. After the incubation period, the assay plate was placed back in the FLIPR^TETRA and the antagonist assay was initiated. Using EC80 potency values determined during the agonist assay, all pre-incubated sample compound wells were challenged with EC80 concentration of reference agonist after establishment of a fluorescence baseline. The antagonist assay was conducted using the same assay plate that was used for the agonist assay. The antagonist assay was conducted on a FLIPR^TETRA instrument where 9 vehicle controls and EC80 concentration of reference agonist were added to appropriate wells. The antagonist assay was a total of 180 seconds and was used to assess each compound's ability to inhibit each GPCR assayed. All assay plate data were subjected to appropriate baseline corrections. After baseline corrections were applied, maximum fluorescence values were exported and data processed to calculate percentage activation (relative to Emax reference agonist and vehicle control values), percentage inhibition (relative to EC80 and vehicle control values), and additional statistical values (i.e. Z′, percentage variation between replicate data values) to assess the quality of each plate. Where assay plate data were rejected, additional experiments were conducted. All dose response curves were generated using GraphPad Prism. The curves were fit by utilizing “Sigmoidal Dose Response (Variable Slope)” equation where the bottom parameter was fixed to “0.” Where appropriate, the top parameter was fixed to “100” to better predict potency values when a full curve was not generated by the concentrations assayed.

T1 sequence (Q92633 whole entry): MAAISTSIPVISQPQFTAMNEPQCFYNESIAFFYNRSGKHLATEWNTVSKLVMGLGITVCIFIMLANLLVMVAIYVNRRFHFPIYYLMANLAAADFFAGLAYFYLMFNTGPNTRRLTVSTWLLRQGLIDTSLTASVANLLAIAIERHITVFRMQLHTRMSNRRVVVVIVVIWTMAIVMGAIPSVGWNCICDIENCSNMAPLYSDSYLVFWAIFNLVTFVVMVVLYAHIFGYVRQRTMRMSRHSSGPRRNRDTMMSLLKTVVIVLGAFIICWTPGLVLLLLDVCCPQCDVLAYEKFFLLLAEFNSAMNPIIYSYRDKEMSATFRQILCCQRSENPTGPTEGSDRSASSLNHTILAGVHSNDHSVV

Compound | IC50
C[C@@H](OC(=O)Nc1c(F)cnn1-c1ccc(-c2ccc(C3(C(=O)O)CC3)cc2)cc1)c1ccccc1Cl [Example 53, (R)-1-(4′-{5-[1-(2-Chloro-phenyl)-ethoxycarbonylamino]-4-fluoro-pyrazol-1-yl}-biphenyl-4-yl)-cyclopropanecarboxylic Acid] | < 300 nM
C[C@@H](OC(=O)Nc1c(C(F)(F)F)cnn1-c1ccc(-c2ccc(C3(C(=O)O)CC3)cc2)cc1)c1ccccc1 [Example 54, (R)-1-{4′-[5-(1-Phenyl-ethoxycarbonylamino)-4-trifluoromethyl-pyrazol-1-yl]-biphenyl-4-yl}-cyclopropanecarboxylic Acid] | 300 to 1000 nM
C[C@@H](OC(=O)Nc1c(C(F)(F)F)cnn1-c1ccc(-c2ccc(C3(C(=O)O)CC3)cc2F)cc1)c1ccccc1 [Example 55, (R)-1-{2-Fluoro-4′-[5-(1-phenyl-ethoxycarbonylamino)-4-trifluoromethyl-pyrazol-1-yl]-biphenyl-4-yl}-cyclopropanecarboxylic Acid] | 300 to 1000 nM
(R)-2-(4-{4-[(R)-1-(2-Chloro-phenyl)-ethoxycarbonylamino]-3-methyl-isoxazol-5-yl}-benzoylamino)-3-phenyl-propionic Acid [Example 20] | < 300 nM

More lines, now with the values ahead:

IC50 | Compound
< 300 nM | C[C@@H](OC(=O)Nc1ccnn1-c1ccc(-c2ccc(C3(C(=O)O)CC3)cc2)nc1)c1ccccc1 [Example 56, (R)-1-(4-{5-[5-(1-Phenyl-ethoxycarbonylamino)-pyrazol-1-yl]-pyridin-2-yl}-phenyl)-cyclopropanecarboxylic Acid]
> 50000 nM | (R)-3-(4-bromophenyl)-2-[[4-[1,5-dimethyl-4-((R)-1-phenylethoxycarbonyl-amino)pyrazol-3-yl]benzoyl]amino]propanoic acid [Example 12]
